Reference: the NIST ThermoML archive (doi:10.1016/j.jct.2012.06.033)
Numbers after ± are expanded uncertainties.

Legend:
[1] = Liquid, Ebulliometric method (Recirculating still)
[2] = refractive index (Na D-line) (dimensionless); conditions: 298.15 K; 101.33 kPa; Liquid; Standard Abbe refractometry

SMILES	vapor or sublimation pressure ([1]; 343.15 K)	vapor or sublimation pressure ([1]; 353.15 K)	vapor or sublimation pressure ([1]; 363.15 K)	refractive index [2]
ClCCCCCl [1,4-dichlorobutane]	5.25 ± 0.03 kPa	8.2 ± 0.04 kPa	12.52 ± 0.05 kPa	1.4522 ± 0.0004
CC[N+](=O)[O-] [nitroethane]	22.46 ± 0.13 kPa	32.84 ± 0.17 kPa	47.13 ± 0.22 kPa	1.3895 ± 0.0007
C[N+](=O)[O-] [nitromethane]	34.93 ± 0.2 kPa	50.14 ± 0.25 kPa	70.81 ± 0.33 kPa	1.3793 ± 0.0007
